Data taken from patent US20070134261A1, “Effectors of innate immunity” (priority 2001, published 2007).
Values after ≈ are worked out from the molar mass of the structure shown. Where two headings read alike, the source gives them in different places. Marks after values point to notes of the source that are not given here. Residues, ends and D or L forms follow the SMILES beside them.

What was measured:
[1] = test system: S. Typhimurium SL1344; assay: Intracellular survival/replication of S. Typhimurium SL1344 in IFN-γ-primed RAW cells (gentamicin-resistance assay); assay type: cell-based, Salmonella Typhimurium; settings: pretreated with inhibitor 30 min prior to infection (50 μM U 0126, 50 μM PD 98059)
[2] = test system: BALB/c mice; assay: Lethal endotoxemia in galactosamine-sensitized BALB/c mice; assay type: in vivo; settings: 2 μg LPS; peptide 200 μg/mouse = 8 mg/kg IP 15 min after LPS; 48 hours; no peptide 10
[3] = test system: RAW 264.7 mouse macrophage cells; assay type: cell-based; settings: Peptide 20 μg/ml; 100 ng/ml E. coli 0111:B4 LPS, 6 h
[4] = test system: S. aureus; assay: Murine S. aureus infection model (CD-1 mice); assay type: in vivo, mouse; settings: peptide 200 μg IP; for CFU/ml (blood): 3 days, No Peptide 7.61 ± 1.7 × 10^3; for # Mice Survived (3 days)/Total mice in group: No Peptide 6/8
Protocol: (§1) BALB/c mice were given 1×10^5 Salmonella and cationic peptide (200 μg) by intraperitoneal injection. The mice were monitored for 24 hours at which point they were euthanized, the spleen removed, homogenized and resuspended in PBS and plated on Luria Broth agar plates with Kanamycin (50 μg/ml). The plates were incubated overnight at 37° C. and counted for viable bacteria (Table 49 and 50). CD-1 mice were given 1×10^8 S. aureus in 5% porcine mucin and cationic peptide (200 μg) by intraperitoneal injection (Table 51). The mice were monitored for 3 days at which point they were euthanized, blood removed and plated for viable counts. CD-1 male mice were given 5.8×10^6 CFU EHEC bacteria and cationic peptide (200 μg) by intraperitoneal (IP) injection and monitored for 3 days (Table 52). […] Many of the cationic peptides were shown not to be directly antimicrobial as tested by the Minimum Inhibitory Concentration (MIC) assay (Table 54).

[5] = assay type: cell-based
[6] = test system: Salmonella; assay: Salmonella infection in BALB/c mice (viable bacteria in spleen); assay type: in vivo, mouse; settings: mouse, in vivo, ip
Protocol: as §1

[7] = test system: A549 human epithelial cells; assay: Induction of chemokines (IL-8, MCP-1) in A549 cells (ELISA); assay type: cell-based; settings: peptide 10 ug/ml, 24 hr
Protocol: The murine macrophage cell line RAW 264.7, THP-1 cells (human monocytes), a human epithelial cell line (A549), human bronchial epithelial cells (16HBEo14), and whole human blood were used. HBE cells were grown in MEM with Earle's. THP-1 cells were grown and maintained in RPMI 1640 medium. The RAW and A549 cell lines were maintained in DMEM supplemented with 10% fetal calf serum. […] DMEM was aspirated from cells grown overnight and replaced with fresh medium. After incubation of the cells with peptide, the release of chemokines into the culture supernatant was determined by ELISA (R&D Systems, Minneapolis, Minn.).

[8] = test system: HBE cells; assay: WST-1 assay (cell viability); assay type: cell-based, human
Protocol: (§2) The potential toxicity of the peptides was measured in two ways. First, the Cytotoxicity Detection Kit (Roche) (Lactate dehydrogenase-LDH) Assay was used. It is a colorimetric assay for the quantification of cell death and cell lysis, based on the measurement of LDH activity released from the cytosol of damaged cells into the supernatant. LDH is a stable cytoplasmic enzyme present in all cells and it is released into the cell culture supernatant upon damage of the plasma membrane. An increase in the amount of dead or plasma membrane-damaged cells results in an increase of the LDH enzyme activity in the culture supernatant as measured with an ELISA plate reader, OD490 nm (the amount of color formed in the assay is proportional to the number of lysed cells). In this assay, human bronchial epithelial cells (I6HBEo14, HBE) cells were incubated with 100 μg of peptide for 24 hours, the supernatant removed and tested for LDH. The other assay used to measure toxicity of the cationic peptides was the WST-1 assay (Roche). This assay is a colorimetric assay for the quantification of cell proliferation and cell viability, based on the cleavage of the tetrazolium salt WST-1 by mitochondrial dehydrogenases in viable cells (a non-radioactive alternative to the [^3H]-thymidine incorporation assay). In this assay, HBE cells were incubated with 100 μg of peptide for 24 hours, and then 10 μl/well Cell Proliferation Reagent WST-1 was added. The cells are incubated with the reagent and the plate is then measured with an ELISA plate reader, OD490 nm.

[9] = test system: human bronchial epithelial cells (HBE); assay: LDH release assay (Cytotoxicity Detection Kit); assay type: cell-based; settings: 100 μg/ml, 24 hours; no peptide control 1.0 ± 0.05
Protocol: as §2

[10] = test system: A549 epithelial cells; assay: Human Operon arrays (PRHU04-S1) of A549 cells treated with peptide alone (Tables 31-37, 53); settings: 50 μg/ml, 4 h
[11] = Staphylococcus aureus, overnight, 96-well plate

Structure (SMILES) | Survival [2] | Inhibition of TNF-α [3] | CFU/ml (blood) [4] | # Mice Survived (3 days)/Total mice in group [4] | MIC, C. rhod. ([5]; 24 h) | MIC, E. coli ([5]; 24 h) | MIC, EHEC ([5]; 24 h) | MIC, S. aureus [5, 11] | Viable Bacteria in the Spleen [6] | IL-8 [7] | MIC, P. aerug. ([5]; 24 h) | MIC, S. typhim. ([5]; 24 h) | further results
COc1cccc(-c2cc(=O)c3ccccc3o2)c1N [PD 98059] | – | – | – | – | – | – | – | – | – | – | – | – | Effect: bacterial filamentation (bacterial stress) [1]: Decrease bacterial filamentation (bacterial stress)^c; Effect: number of intracellular S. Typhimurium [1]: Increase in the number of intracellular S. Typhimurium
CC[C@H](C)[C@H](NC(=O)[C@H](CCCNC(=N)N)NC(=O)[C@H](CS)NC(=O)[C@H](CC(C)C)NC(=O)[C@@H](N)CC(C)C)C(=O)N[C@H](C(=O)N1CCC[C@H]1C(=O)N[C@H](C(=O)N[C@H](C(=O)N1CCC[C@H]1C(=O)N[C@@H](Cc1c[nH]c2ccccc12)C(=O)N[C@@H](CS)C(=O)N[C@@H](CCCCN)C(=O)O)[C@@H](C)CC)C(C)C)C(C)C [SEQ ID NO: 5] (H-LLCRIVPVIPWCK-OH; N-terminus and C-terminus assumed) | 17% | 65.6 ± 1.6% | 3.28 ± 1.7 × 10^3 CFU/ml | 4/4 | 64 µg/mL (≈ 41.6 µM) | 128 µg/mL (≈ 83.1 µM) | 64 µg/mL (≈ 41.6 µM) | > | 2.75 ± 0.59 × 10^4 CFU/ml | – | – | – | –
CC[C@H](C)[C@H](NC(=O)[C@H](CS)NC(=O)[C@H](CCSC)NC(=O)[C@H](CCCNC(=N)N)NC(=O)[C@@H](N)CCCNC(=N)N)C(=O)N[C@@H](CCCCN)C(=O)N[C@H](C(=O)N[C@@H](CS)C(=O)N[C@H](C(=O)N[C@@H](CCCNC(=N)N)C(=O)NCC(=O)N[C@H](C(=O)N[C@@H](CS)C(=O)N[C@@H](CCCNC(=N)N)C(=O)N[C@@H](CCCNC(=N)N)C(=O)N[C@@H](CCCCN)C(=O)N[C@@H](CS)C(=O)N[C@@H](CCCNC(=N)N)C(=O)N[C@@H](CCCCN)C(=O)O)C(C)C)C(C)C)C(C)C [SEQ ID NO: 26] (H-RRMCIKVCVRGVCRRKCRK-OH; N-terminus and C-terminus assumed) | 0% | 54.9 ± 1.6% | – | – | 2 µg/mL (≈ 0.851 µM) | 0.5 µg/mL (≈ 0.213 µM) | 0.5 µg/mL (≈ 0.213 µM) | – | 7.1 ± 1.37 × 10^4 CFU/ml | 0.201 ng/mL | 64 µg/mL (≈ 27.2 µM) | 2 µg/mL (≈ 0.851 µM) | OD490 nm (WST-1 cell viability) [8]: 1.42 ± 0.11 OD490 nm; LDH Release (OD490 nm) [9]: 0.93 ± 0.04 OD490 nm; MIC, S. aureus ([5]; 24 h): 32 µg/mL (≈ 13.6 µM)
CSCC[C@H](NC(=O)CNC(=O)[C@H](CCCNC(=N)N)NC(=O)[C@H](CCSC)NC(=O)[C@H](C)NC(=O)[C@@H](NC(=O)[C@H](CCCCN)NC(=O)[C@@H](NC(=O)[C@H](CS)NC(=O)[C@H](CCC(N)=O)NC(=O)[C@@H](N)CCCCN)C(C)C)C(C)C)C(=O)N[C@@H](C)C(=O)N[C@@H](CC(C)C)C(=O)N[C@@H](CCCNC(=N)N)C(=O)N[C@@H](CCCNC(=N)N)C(=O)N[C@@H](CS)C(=O)N[C@@H](CCCCN)C(=O)O [SEQ ID NO: 30] (H-KQCVKVAMRGMALRRCK-OH; N-terminus and C-terminus assumed) | – | – | 1.29 ± 0.04 × 10^2 CFU/ml | 4/4 | 16 µg/mL (≈ 8.09 µM) | 16 µg/mL (≈ 8.09 µM) | 4 µg/mL (≈ 2.02 µM) | > | 5.79 ± 0.43 × 10^3 CFU/ml | 0.284 ng/mL | 128 µg/mL (≈ 64.7 µM) | 16 µg/mL (≈ 8.09 µM) | Fold Up regulation of Gene Expression relative to Untreated Cells: Cell cycle gene (S70622) [10]: 8.5 fold; Fold Up regulation of Gene Expression relative to Untreated Cells: Dehydrogenase (D17793) [10]: 2.3 fold; Fold Up regulation of Gene Expression relative to Untreated Cells: Forkhead protein (AF042832) [10]: 14.1 fold; Fold Up regulation of Gene Expression relative to Untreated Cells: Homeobox protein (AC004774) [10]: 3.2 fold; Fold Up regulation of Gene Expression relative to Untreated Cells: Hypothetical Protein (AK002104) [10]: 4.7 fold; Fold Up regulation of Gene Expression relative to Untreated Cells: Hypothetical Protein (AL022393) [10]: 4.4 fold; Fold Up regulation of Gene Expression relative to Untreated Cells: IL-10 Receptor (U00672) [10]: 2.6 fold; Fold Up regulation of Gene Expression relative to Untreated Cells: KIAA0284 Protein (AB006622) [10]: 3.4 fold; Fold Up regulation of Gene Expression relative to Untreated Cells: Peroxisome factor (AB013818) [10]: 3.4 fold; Fold Up regulation of Gene Expression relative to Untreated Cells: Polypeptide (AF105424) [10]: 2.5 fold; Fold Up regulation of Gene Expression relative to Untreated Cells: Protein (AL050261) [10]: 3.3 fold; Fold Up regulation of Gene Expression relative to Untreated Cells: Receptor (AF112461) [10]: 2.4 fold; Fold Up regulation of Gene Expression relative to Untreated Cells: SPR1 protein (AB031480) [10]: 3.0 fold; Fold Up regulation of Gene Expression relative to Untreated Cells: Transferase (AF038664) [10]: 12.3 fold; Fold Up regulation of Gene Expression relative to Untreated Cells: Transferase (M63509) [10]: 2.7 fold; Fold Up regulation of Gene Expression relative to Untreated Cells: Unknown (AL096803) [10]: 4.8 fold; Fold Up regulation of Gene Expression relative to Untreated Cells: Zinc finger protein (AF061261) [10]: 2.6 fold
